Reference: patent publication US20090028991A1, “Lactobacillus buchneri strain LN1284 and its use to improve aerobic stability of silage” (Pioneer Hi-Bred International, Inc., priority 2006, published 2009)

Test system: grass silage
Test: Aerobic stability of grass silage (PVC silos, method of Honig)
Set-up: species or system ryegrass
Procedure: Second cut ryegrass was harvested at PLNC. The grass was determined to have an approximate dry matter of 35%.
Inoculation: Individual strains were supplied as fresh grown overnight culture. Cultures were adjusted to a standard concentration of 5.0×10^7 CFU/mL and applied using a syringe at a rate of 2.2 mL/kg of forage. The application rate for all strains was 1.1×10^5 CFU/g forage. Propionic acid (88%) was applied at a rate of 4.4 mL/kg fresh forage.
PVC Silos: PVC silos were filled at a packing density of 0.288 kg DM/silo (100 kg DM/m^3); approximately 0.82-0.95 kg/silo. Silos were air infused for 24 hours on days 28 and 42, and opened after 50-60 days of ensiling.
Aerobic Stability: The method of Honig (Proc. Of the Eurobac. Conf., P. Lingvall and S. Lindgren (ed.) (12-16 Aug. 1986) Swed. Univ. of Agric. Sci. Grass and Forage Report No. 3-1990. Pp. 76-81. Uppsala, Sweden.) was used for measuring aerobic stability (see Table 2). ROT is defined as the time, in hours, for the silage to heat 1.7° C. after exposure to air. Cumm_DD is the integral value of the area between the time ROT is attained and the end of the experiment. Aerobic dry matter loss (% dry matter) was determined relating the increase in temperature and the time to energy losses occurring in the silage.

In the case of `CCC(=O)O` [Propionic Acid, Propionic acid], the “Aerobic deterioration versus control grass silages” value is reported as “significantly less aerobic deterioration than the control”.
